Results: patent publication US20260232701A1, “[…] AN […] REUPTAKE INHIBITOR FOR USE IN THE TREATMENT OF TREAMENT- RESISTANT DEPRESSION” (Compass Pathfinder Limited, priority 2021, published 2026)
≈ marks a conversion by molar mass, not a printed value.

Tests used:
[1] = test system: participants with treatment-resistant depression (TRD); assay: Montgomery-Asberg Depression Rating Scale (MADRS), Phase IIb open-label study of psilocybin adjunct to SSRI; type: in vivo, human; conditions: for MADRS total score, Mean (SD) / MADRS Remitters (MADRS total score ≤10) / MADRS Responders (≥50% decrease in MADRS total score from baseline) / MADRS total score, Change from baseline Mean (SD): 25 mg + SSRI, N = 19
Method: The effectiveness of 25 mg COMP360 as an adjunctive therapy in participants with TRD was explored.
The study was a Phase IIb, international multicentre, fixed-dose, open-label study. The study population included adult men and women, 18 years of age or older, with TRD. […] The duration of the current episode must be at least 3 months but not more than 2 years.
The psilocybin administration session (V3, day 1) will last approximately 6 h and will be supported by a trained therapist. The study drug will be administered simultaneously to up to six participants. Blood pressure will be monitored continuously during the session. The COMP360 administration session may be video recorded for training and adherence monitoring. After the acute effects of psilocybin pass, participants will be evaluated for safety and accompanied home. On day 2 (V4), the day following psilocybin administration, participants will be seen in person for a safety check, assessment of suicidality and clinical and self-report assessments, and to discuss their experience during the psilocybin administration session. All sessions between the therapist and the participant may be audio recorded for adherence monitoring and quality assurance.
The primary objective of this study is to evaluate the efficacy of 25 mg of psilocybin adjunct to serotonergic antidepressants in TRD participants, as assessed by the change in the Montgomery-Asberg Depression Rating Scale (MADRS) total score from baseline. Baseline is defined as the assessment score obtained on Day −1. The primary time point is week 3.
(§1) Additional objectives of this study are to assess the efficacy of psilocybin […] on the: • (a) proportion of subjects with response defined as a ≥50% decrease in MADRS total score from baseline to week 3. • (b) proportion of subjects with remission (defined as a MADRS total score ≤10) at week 3 post psilocybin administration. • (c) changes from baseline Clinical Global Impression-Severity scale (CGI-S) at week 3 post psilocybin administration.

[2] = test system: participants with treatment-resistant depression (TRD); assay: Safety: treatment emergent adverse events (TEAE), same study; type: in vivo, human
Excerpt: Another objective is to evaluate the safety and tolerability of psilocybin in subjects with TRD based on AEs, changes in vital signs, and suicidal ideation/behaviour (measured using the Columbia-Suicide Severity Rating Scale [C-SSRS]) score at all visits.
Throughout the course of the study, all adverse events (AEs) will be monitored and recorded and will include the AE's description, start and end date, seriousness, severity, action taken, and relationship to the treatment. If AEs occur, the first concern will be the safety of the study subjects.
An AE can therefore be any unfavorable and unintended sign (including an abnormal laboratory finding, for example), symptom, or disease temporally associated with the use of a medicinal product, whether considered related to the medicinal product.
AEs will be coded by Preferred Term (PT) using the Medical Dictionary for Regulatory Activities (MedDRA) classification. All reported AEs with onset or worsening after the administration of study medication will be included in the analysis. The incidence of AEs will be summarized by treatment group, and by severity and relationship to psilocybin. Serious AEs and AEs leading to withdrawal from the study will be tabulated.
A TEAE is defined as any AE that has an onset on or after the dose of psilocybin, or any pre-existing condition that has worsened on or after the dose of psilocybin.
The incidence of TEAEs and treatment-related AEs will also be summarized by maximum severity and most-related relationship to psilocybin by MedDRA primary system organ class and PT. The summary will include the total number and percentage of subjects reporting an event.

[3] = test system: participants with treatment-resistant depression (TRD); assay: Clinical Global Impression - Severity scale (CGI-S), same study; type: in vivo, human; conditions: for CGI-S Responders: 25 mg + SSRI, N = 19
Method: as §1

[4] = test system: participants with treatment-resistant depression (TRD); assay: Clinical Global Impression - Improvement scale (CGI-I), same study; type: in vivo, human; conditions: 25 mg + SSRI, N = 19
[5] = week 3, single 25 mg dose adjunct to SSRI
[6] = 25 mg adjunct to SSRI, 19 patients
[7] = on the day of dosing or the day after
[8] = severity mild, 25 mg + SSRI, N = 19
[9] = severity moderate, 25 mg + SSRI, N = 19

CN(C)CCc1c[nH]c2cccc(OP(=O)(O)O)c12 [COMP360, psilocybin]
MADRS total score, Mean (SD) ([1]; Baseline (before dosing)): 31.7 (5.77)
MADRS Remitters (MADRS total score ≤10) ([1]; Day 2): 10 (52.6) n (%)
MADRS Responders (≥50% decrease in MADRS total score from baseline) ([1]; Day 2): 12 (63.2) n (%)
MADRS total score, Change from baseline Mean (SD) ([1]; Day 2): −18.3 (11.85)
MADRS total score, Mean (SD) ([1]; Day 2): 13.4 (12.92)
MADRS Remitters (MADRS total score ≤10) ([1]; Week 1): 9 (47.4) n (%)
MADRS Responders (≥50% decrease in MADRS total score from baseline) ([1]; Week 1): 11 (57.9) n (%)
MADRS total score, Change from baseline Mean (SD) ([1]; Week 1): −17.1 (11.29)
MADRS total score, Mean (SD) ([1]; Week 1): 14.6 (11.88)
MADRS Remitters (MADRS total score ≤10) ([1]; Week 2): 8 (42.1) n (%)
MADRS Responders (≥50% decrease in MADRS total score from baseline) ([1]; Week 2): 11 (57.9) n (%)
MADRS total score, Change from baseline Mean (SD) ([1]; Week 2): −15.7 (12.02)
MADRS total score, Mean (SD) ([1]; Week 2): 16.0 (11.70)
MADRS Remitters (MADRS total score ≤10) ([1]; Week 3): 8 (42.1) n (%)
MADRS Responders (≥50% decrease in MADRS total score from baseline) ([1]; Week 3): 8 (42.1) n (%)
MADRS total score, Change from baseline Mean (SD) ([1]; Week 3): −14.9 (11.97)
MADRS total score, Mean (SD) ([1]; Week 3): 16.8 (11.62)
proportion of participants who were MADRS remitters ([1]; by week 3, single 25 mg dose adjunct to SSRI): ~ 42%
proportion of participants who were MADRS responders [1, 5]: ~ 42%
average reduction in MADRS total score from baseline ([1]; week 3, single 25 mg dose adjunct to SSRI, 19 patients): 14.9
TEAEs classed as serious (TESAEs) [2, 6]: no TEAEs classed as serious
TEAEs related to suicidal ideation or behaviour or intentional self-injury [2, 6]: no TEAEs related to suicidal ideation or behaviour or intentional self-injury
tolerability [2, 6]: generally well tolerated
resolution of headache TEAE ([2]; all cases): all cases resolved in one or two days
most common TEAE headache, events [2, 7]: 6 events
most common TEAE headache, participants [2, 7]: 6 participants
TEAE Blood pressure increase [2, 8]: 1 (5.3) n (%)
TEAE Diarrhoea [2, 8]: 1 (5.3) n (%)
TEAE Dizziness [2, 8]: 1 (5.3) n (%)
TEAE Dry mouth [2, 8]: 1 (5.3) n (%)
TEAE Fall [2, 8]: 1 (5.3) n (%)
TEAE Headache [2, 8]: 5 (26.3) n (%)
TEAE Palpitations [2, 8]: 1 (5.3) n (%)
TEAE Skin abrasion [2, 8]: 1 (5.3) n (%)
TEAE Vertigo [2, 8]: 1 (5.3) n (%)
TEAE Depression [2, 9]: 1 (5.3) n (%)
TEAE Headache [2, 9]: 1 (5.3) n (%)
TEAE Hypertension ([2]; severity severe, 25 mg + SSRI, N = 19): 1 (5.3) n (%)
CGI-S Responders ([3]; Day 2): 8 (42.1) n (%)
CGI-S Responders ([3]; Week 1): 12 (63.2) n (%)
CGI-S Responders ([3]; Week 2): 11 (57.9) n (%)
CGI-S Responders ([3]; Week 3): 10 (52.6) n (%)
average CGI-S score ([3]; baseline ("moderately ill")): 4
average CGI-S score ([3]; week 3 ("mildly ill"), single 25 mg dose adjunct to SSRI): 3
proportion of participants who were CGI-S responders [3, 5]: 52.6%
CGI-I Responders ([4]; Day 2): 11 (57.9) n (%)
CGI-I Responders ([4]; Week 1): 12 (63.2) n (%)
CGI-I Responders ([4]; Week 2): 8 (42.1) n (%)
CGI-I Responders ([4]; Week 3): 7 (36.8) n (%)
solubility (Solubility in water): ~15 mg/mL (≈ 52.8 mM)
